# Values quoted from earlier work, collected in PubChem BioAssay AID1259409 (Chemical Carcinogenesis Research Information System (CCRIS), 2018).
# Test system: rodent chemically induced tumor inhibition, incidence and multiplicity
# Experiment: CCRIS tumor inhibitor studies
compound,measurement,setting,value
CCCOC(=O)c1cc(O)c(O)c(O)c1,"tumour outcome (control, treated, inhibition, significance)","Carcinogen: 1,2-DIMETHYLHYDRAZINE, 540-73-8, Dose [Inhibitor]: 0, 1% IN DIET BEGINNING 1 WK POST LAST CARCINOGEN DOSE AND CONTINUING FOR 36 WK (STUDY DURATION: 40 WK), Route [Inhibitor]: ORAL, Species: RAT, Strain/Sex: F344/MALE, Target Tissue: Type of Lesion: COLON: ADENOMA, Dose [Carcinogen]: 20 MG/KG 1/WK FOR 4 WK, Promoter: NONE USED","1/20 (5%), 5/20 (25%), -400%, not calculated"
same,"tumour outcome (control, treated, inhibition, significance)","Carcinogen: 1,2-DIMETHYLHYDRAZINE, 540-73-8, Dose [Inhibitor]: 0, 1% IN DIET BEGINNING 1 WK POST LAST CARCINOGEN DOSE AND CONTINUING FOR 36 WK (STUDY DURATION: 40 WK), Route [Inhibitor]: ORAL, Species: RAT, Strain/Sex: F344/MALE, Target Tissue: Type of Lesion: COLON: CARCINOMA, Dose [Carcinogen]: 20 MG/KG 1/WK FOR 4 WK, Promoter: NONE USED","6/20 (30%), 6/20 (30%), 0%"
same,"tumour outcome (control, treated, inhibition, significance)","Carcinogen: 7,12-DIMETHYLBENZ(A)ANTHRACENE, 57-97-6, Dose [Inhibitor]: 0.3% IN HIGH SATURATED FAT DIET (STUDY DURATION: 32 WK), Route [Inhibitor]: ORAL, Species: RAT, Strain/Sex: SPRAGUE-DAWLEY/FEMALE, Target Tissue: Type of Lesion: MAMMARY GLAND: PARENCHYMAL CARCINOMA, Dose [Carcinogen]: 10 MG IN 1 ML CORN OIL ONCE AT 50 D OF AGE, Promoter: NONE USED","20/30 (67%), 8/30 (27%), 60%, not calculated"
same,"tumour outcome (control, treated, inhibition, significance)","Carcinogen: 7,12-DIMETHYLBENZ[A]ANTHRACENE, 57-97-6, Dose [Inhibitor]: 0, 20 UMOL IN 0.4 ML ACETONE 20 MIN PRIOR TO EACH PROMOTER DOSE (STUDY DURATION: 47 WK), Route [Inhibitor]: DERMAL, Species: MOUSE, Strain/Sex: CF-1/FEMALE, Target Tissue: Type of Lesion: SKIN: CARCINOMA, Dose [Carcinogen]: 100 NMOL IN 0.2 ML ACETONE ONCE","67%, 8%, 88%, not calculated"
same,"tumour outcome (control, treated, inhibition, significance)","Carcinogen: 7,12-DIMETHYLBENZ[A]ANTHRACENE, 57-97-6, Dose [Inhibitor]: 0, 20 UMOL IN 0.4 ML ACETONE 20 MIN PRIOR TO EACH PROMOTER DOSE (STUDY DURATION: 47 WK), Route [Inhibitor]: DERMAL, Species: MOUSE, Strain/Sex: CF-1/FEMALE, Target Tissue: Type of Lesion: SKIN: PAPILLOMA, Dose [Carcinogen]: 100 NMOL IN 0.2 ML ACETONE ONCE","94%, 66%, 30%, not calculated"
same,"tumour outcome (control, treated, inhibition, significance)","Carcinogen: 7,12-DIMETHYLBENZ[A]ANTHRACENE, 57-97-6, Dose [Inhibitor]: 0.3% IN HIGH POLYUNSATURATED FAT DIET (STUDY DURATION: 32 WK), Route [Inhibitor]: ORAL, Species: RAT, Strain/Sex: SPRAGUE-DAWLEY/FEMALE, Target Tissue: Type of Lesion: MAMMARY GLAND: PARENCHYMAL CARCINOMA, Dose [Carcinogen]: 10 MG IN 1 ML CORN OIL ONCE AT 50 D OF AGE, 1X, Promoter: NONE USED","30/30 (100%), 23/30 (77%), 23%, not calculated"
same,"tumour outcome (control, treated, inhibition, significance)","Carcinogen: 7,12-DIMETHYLBENZ[A]ANTHRACENE, 57-97-6, Dose [Inhibitor]: 0.3% IN HIGH POLYUNSATURATED FAT DIET DAILY STARTING 29 D BEFORE CARCINOGEN TREATMENT AND CONTINUING FOR THE DURATION OF, Route [Inhibitor]: ORAL, Species: RAT, Strain/Sex: SPRAGUE-DAWLEY/FEMALE, Target Tissue: Type of Lesion: MAMMARY GLAND: ADENOCARCINOMA, Dose [Carcinogen]: 10 MG IN 1 ML STRIPPED CORN OIL ONCE AT AGE 50 D, Promoter: NONE USED","100%, 70%, 30%, not calculated"
same,"tumour outcome (control, treated, inhibition, significance)","Carcinogen: 7,12-DIMETHYLBENZ[A]ANTHRACENE, 57-97-6, Dose [Inhibitor]: 0.3% IN HIGH SATURATED FAT DIET DAILY STARTING 29 D BEFORE CARCINOGEN TREATMENT AND CONTINUING FOR THE DURATION OF THE S, Route [Inhibitor]: ORAL, Species: RAT, Strain/Sex: SPRAGUE-DAWLEY/FEMALE, Target Tissue: Type of Lesion: MAMMARY GLAND: ADENOCARCINOMA, Dose [Carcinogen]: 10 MG IN 1 ML STRIPPED CORN OIL ONCE AT AGE 50 D, Promoter: NONE USED","65%, 35%, 46%, not calculated"
same,"tumour outcome (control, treated, inhibition, significance)","Carcinogen: 7,12-DIMETHYLBENZ[A]ANTHRACENE, 57-97-6, Dose [Inhibitor]: 0.3% IN LOW FAT DIET (STUDY DURATION: 32 WK), Route [Inhibitor]: ORAL, Species: RAT, Strain/Sex: SPRAGUE-DAWLEY/FEMALE, Target Tissue: Type of Lesion: MAMMARY GLAND: PARENCHYMAL CARCINOMA, Dose [Carcinogen]: 10 MG IN 1 ML CORN OIL ONCE AT 50 D OF AGE, Promoter: NONE USED","7/30 (23%), 4/30 (13%), 43%, not calculated"
same,"tumour outcome (control, treated, inhibition, significance)","Carcinogen: 7,12-DIMETHYLBENZ[A]ANTHRACENE, 57-97-6, Dose [Inhibitor]: 0.3% IN LOW FAT DIET DAILY STARTING 29 D BEFORE CARCINOGEN TREATMENT AND CONTINUING FOR THE DURATION OF THE STUDY (STUDY, Route [Inhibitor]: ORAL, Species: RAT, Strain/Sex: SPRAGUE-DAWLEY/FEMALE, Target Tissue: Type of Lesion: MAMMARY GLAND: ADENOCARCINOMA, Dose [Carcinogen]: 10 MG IN 1 ML STRIPPED CORN OIL ONCE AT AGE 50 D, Promoter: NONE USED","35%, 15%, 57%, not calculated"
same,"tumour outcome (control, treated, inhibition, significance)","Carcinogen: 7,12-DIMETHYLBENZ[A]ANTHRACENE, 57-97-6, Dose [Inhibitor]: 1.0% IN POWDERED DIET BEGINNING 1 WK POST CARCINOGEN DOSE FOR 51 WK (STUDY DURATION: 52 WK), Route [Inhibitor]: ORAL, Species: RAT, Strain/Sex: SPRAGUE-DAWLEY/FEMALE, Target Tissue: Type of Lesion: EAR DUCT: BENIGN TUMOR, Dose [Carcinogen]: 2.5 MG/100 G BW IN 0.5 ML SESAME OIL ONCE, Promoter: NONE USED","7/19 (37%), 3/20 (15%), 59%, not calculated"
same,"tumour outcome (control, treated, inhibition, significance)","Carcinogen: 7,12-DIMETHYLBENZ[A]ANTHRACENE, 57-97-6, Dose [Inhibitor]: 1.0% IN POWDERED DIET BEGINNING 1 WK POST CARCINOGEN DOSE FOR 51 WK (STUDY DURATION: 52 WK), Route [Inhibitor]: ORAL, Species: RAT, Strain/Sex: SPRAGUE-DAWLEY/FEMALE, Target Tissue: Type of Lesion: MAMMARY GLAND: CARCINOMA, Dose [Carcinogen]: 2.5 MG/100 G BW IN 0.5 ML SESAME OIL ONCE, Promoter: NONE USED","6/19 (32%), 1/20 (5%), 84%, p<0.05"
same,"tumour outcome (control, treated, inhibition, significance)","Carcinogen: 7,12-DIMETHYLBENZ[A]ANTHRACENE, 57-97-6, Dose [Inhibitor]: 1.0% IN POWDERED DIET BEGINNING 1 WK POST CARCINOGEN DOSE FOR 51 WK (STUDY DURATION: 52 WK), Route [Inhibitor]: ORAL, Species: RAT, Strain/Sex: SPRAGUE-DAWLEY/FEMALE, Target Tissue: Type of Lesion: MAMMARY GLAND: FIBROADENOMA, Dose [Carcinogen]: 2.5 MG/100 G BW IN 0.5 ML SESAME OIL ONCE, Promoter: NONE USED","15/19 (79%), 4/20 (20%), 75%, p<0.001"
O=C(/C=C/c1ccccc1)c1ccccc1O,"tumour outcome (control, treated, inhibition, significance)","Carcinogen: 4-NITROQUINOLINE-1-OXIDE, 56-57-5, Dose [Inhibitor]: 0, 500 PPM IN DIET FOR 10 WK BEGINNING 1 WK PRIOR TO CARCINOGEN DOSE (STUDY DURATION: 32 WK), Route [Inhibitor]: ORAL, Species: RAT, Strain/Sex: F344/MALE, Target Tissue: Type of Lesion: TONGUE: CARCINOMA, Dose [Carcinogen]: 20 PPM IN DRINKING WATER FOR 8 WK, Promoter: NONE USED","9/15 (60%), 2/16 (13%), 78%, p<0.05"
same,"tumour outcome (control, treated, inhibition, significance)","Carcinogen: 4-NITROQUINOLINE-1-OXIDE, 56-57-5, Dose [Inhibitor]: 0, 500 PPM IN DIET FOR 10 WK BEGINNING 1 WK PRIOR TO CARCINOGEN DOSE (STUDY DURATION: 32 WK), Route [Inhibitor]: ORAL, Species: RAT, Strain/Sex: F344/MALE, Target Tissue: Type of Lesion: TONGUE: PAPILLOMA, Dose [Carcinogen]: 20 PPM IN DRINKING WATER FOR 8 WK, Promoter: NONE USED","4/15 (27%), 1/16 (6%), 78%, not significant"
same,"tumour outcome (control, treated, inhibition, significance)","Carcinogen: 4-NITROQUINOLINE-1-OXIDE, 56-57-5, Dose [Inhibitor]: 0, 500 PPM IN DIET FOR 22 WK BEGINNING 1 WK POST CARCINOGEN TREATMENT (STUDY DURATION: 32 WK), Route [Inhibitor]: ORAL, Species: RAT, Strain/Sex: F344/MALE, Target Tissue: Type of Lesion: TONGUE: CARCINOMA, Dose [Carcinogen]: 20 PPM IN DRINKING WATER FOR 8 WK, Promoter: NONE USED","9/15 (60%), 3/16 (19%), 68%, p<0.05"
same,"tumour outcome (control, treated, inhibition, significance)","Carcinogen: 4-NITROQUINOLINE-1-OXIDE, 56-57-5, Dose [Inhibitor]: 0, 500 PPM IN DIET FOR 22 WK BEGINNING 1 WK POST CARCINOGEN TREATMENT (STUDY DURATION: 32 WK), Route [Inhibitor]: ORAL, Species: RAT, Strain/Sex: F344/MALE, Target Tissue: Type of Lesion: TONGUE: PAPILLOMA, Dose [Carcinogen]: 20 PPM IN DRINKING WATER FOR 8 WK, Promoter: NONE USED","4/15 (27%), 0/16 (0%), 100%, p<0.05"
CCCCCCC(=O)O[C@H]1CC[C@H]2[C@@H]3CCC4=CC(=O)CC[C@]4(C)[C@H]3CC[C@]12C,"tumour outcome (control, treated, inhibition, significance)","Carcinogen: 7,12-DIMETHYLBENZ[A]ANTHRACENE, 57-97-6, Dose [Inhibitor]: 0, 6 MG/100 G BW 1/WK FOR 150 D BEGINNING POST CARCINOGEN TREATMENT (STUDY DURATION: 150 D), Route [Inhibitor]: SUBCUTANEOUS, Species: RAT, Strain/Sex: WISTAR/FEMALE, Target Tissue: Type of Lesion: MAMMARY GLAND: ADENOCARCINOMA, Dose [Carcinogen]: 4 MG IN 0.1 ML OF SESAME OIL INJECTED ONCE INTO THE EXPOSED MAMMARY TISSUE OF HYPERPROLACTINEMIC RATS ON DAY 73 OF AGE, Promoter: NONE USED","8/11 (73%), 2/8 (25%), 66%, p<0.05"
